Test results taken from paper PMC3871618 (PLoS ONE, 2013).

Tests used:
MDCKII parent cells = experiment: XTT cytotoxicity, CDKi + DNR combination (Chou-Talalay); type: cell-based; conditions: 72 h
Description: (§1) 1×10^4 MDCKII-ABCB1, 1×10^4 MDCKII parent, 2×10^4 HCT-8, or 2×10^4 HepG2 cells were grown in 96-well culture plates and incubated for 24 h. Individual CDKi diluted with growth medium were added to the exponentially growing cells and the resulting mixtures were incubated for 72 h at 37°C, 5% CO2. Cytotoxicity was then assessed using the XTT assay as follows: cells were incubated with 0.167 mg/mL XTT and 4 µM PMS in Opti-MEM for 2 h. The absorbance of the soluble formazan released was measured at 470 nm on a microplate reader (Tecan, Männedorf, Switzerland).
(§2) The combination index (CI) method of Chou-Talalay, based on the median-effect equation, was used to calculate combined drug effects. This approach offers quantitative definitions for additive, synergistic and antagonistic effects (CI values of 0.9–1.1, <0.9, and >1.1, respectively). Combination experiments were performed in a constant-ratio experimental design as recommended for the most efficient data analysis, and the generated data were used to quantify dose-reduction indices (DRI) for pairs of the tested drugs. DRI represents the fold-change of a focal effect when individual agents are used simultaneously relative to their separate effects, and their activity is synergistic if DRI > 1. […] The data acquired from these drug combination experiments were analyzed using CompuSyn ver. 3.0.1 software (ComboSyn Inc., Paramus, NJ, USA).

HCT-8 cells = experiment: as above; conditions: HCT-8, 72 h
Description: as §1, §2

HepG2 cells = experiment: as above; type: cell-based, human; conditions: HepG2, 72 h
Description: as §1, §2

ABCB1 transporter = target: T1, ABCB1 transporter (Homo sapiens, UniProt P08183); experiment: HOE (Hoechst 33342) accumulation in MDCKII-ABCB1 cells; type: cell-based; conditions: 8 µM HOE, end-point fluorescence at 30 min, 50% of each compound's own maximum inhibitory activity, read-out: IC50, inhibition of ABCB1-mediated efflux of HOE
T1 construct: expressed in transfected cells; host or cells: MDCKII (canine kidney) cells transduced with human ABCB1, from Prof; Piet Borst and Dr. Alfred Schinkel (The Netherlands Cancer Institute)
Description: (§3) To investigate the inhibitory activity of CDKi on ABCB1, the intracellular accumulation of HOE, a fluorescent ABCB1 substrate, was examined in both MDCKII-ABCB1 and MDCKII parent cell lines in the presence and absence of the tested compounds. The reduction in fluorescence intensity in ABCB1-transduced cells indicates the efflux activity of the ABCB1 transporter, its inhibition increases HOE accumulation and thus the intracellular fluorescence.
(§4) The assay was conducted as previously described and optimized for application in ABCB1-expressing cells. Briefly, MDCKII-ABCB1 and MDCKII parent cells were seeded at 5×10^4 cells per well on a 96-well culture plate and used for accumulation experiments after 24 h cultivation. The medium was removed and cells were washed twice with prewarmed phosphate buffered saline (PBS) at pH 7.4.

ABCB1 [1] = target: T2, ABCB1 (Homo sapiens, UniProt P08183); experiment: ABCB1-ATPase inhibition assay (verapamil-stimulated), Sf9 membranes; type: biochemical; set-up: purchased Solvo Biotechnology (Szeged, Hungary); host or cells: Sf9 insect cell membranes; conditions: 140 nM to 300 µM
Description: (§5) The drug efflux function of ABCB1 is linked to hydrolysis of ATP by ATPase, which is stimulated in the presence of ABCB1 substrates. In the activation assay, transported substrates can stimulate baseline vanadate-sensitive ATPase activity, whereas in the inhibition assay, which is carried out in the presence of a known activator of the transporter, inhibitors may reduce the maximal vanadate-sensitive ATPase activity. ATPase activity was measured by assessing the amount of phosphate liberated from ATP by the ABCB1 transporter using the […] ATPase kit for ABCB1 according to the manufacturer’s instructions. For this purpose, Sf9 cell membranes (4 µg protein per well) were mixed with each of the test compounds (singly) in solutions with concentrations ranging from 140 nM to 300 µM, then incubated at 37°C for 10 min in the presence or absence of 1.2 mM sodium orthovanadate. The reaction was started by adding 10 mM ATP solution (magnesium salt) to the reaction mixture, stopped 10 min later, and the absorbance at 590 nm was measured after a further 30 min incubation (GeniosPlus apparatus; Tecan, Männedorf, Switzerland). The ATPase activity in each sample was determined as the difference in liberated amounts of phosphate measured in the presence and absence of 1.2 mM sodium orthovanadate. Phosphate standards were prepared in each plate and verapamil served as a positive control for ABCB1 stimulation. The results are expressed as vanadate-sensitive ATPase activities.

ABCB1 [2] = target: T2, ABCB1; experiment: ABCB1-ATPase activation assay (baseline), Sf9 membranes; type: biochemical; set-up: purchased Solvo Biotechnology (Szeged, Hungary); host or cells: Sf9 insect cell membranes; conditions: from ATPase activity in Sf9 membranes overexpressing human ABCB1
Description: as §5

ABCB1 [3] = target: T2, ABCB1; experiment: HOE (Hoechst 33342) accumulation in MDCKII-ABCB1 cells; type: cell-based; set-up: expressed in transfected cells; host or cells: MDCKII (canine kidney) cells transduced with human ABCB1, from Prof; Piet Borst and Dr. Alfred Schinkel (The Netherlands Cancer Institute); conditions: human, probe Hoechst 33342 (HOE), 8 µM, CDKi applied at their respective IC50 concentrations, % as strongly as LY, read-out: Inhibition of HOE efflux relative to LY
Description: as §3, §4

[4] = DNR combined with Olomoucine II, ratio 1∶9.2
[5] = DNR combined with Purvalanol A, ratio 1∶11.7
[6] = DNR combined with Roscovitine, ratio 1∶12.3
[7] = DNR combined with Olomoucine II, ratio 1∶6.3
[8] = DNR combined with Purvalanol A, ratio 1∶17.7
[9] = DNR combined with Roscovitine, ratio 1∶17.0
[10] = DNR combined with Olomoucine II, ratio 1∶20.5
[11] = DNR combined with Roscovitine, ratio 1∶47.0

T2 sequence (P08183 whole entry): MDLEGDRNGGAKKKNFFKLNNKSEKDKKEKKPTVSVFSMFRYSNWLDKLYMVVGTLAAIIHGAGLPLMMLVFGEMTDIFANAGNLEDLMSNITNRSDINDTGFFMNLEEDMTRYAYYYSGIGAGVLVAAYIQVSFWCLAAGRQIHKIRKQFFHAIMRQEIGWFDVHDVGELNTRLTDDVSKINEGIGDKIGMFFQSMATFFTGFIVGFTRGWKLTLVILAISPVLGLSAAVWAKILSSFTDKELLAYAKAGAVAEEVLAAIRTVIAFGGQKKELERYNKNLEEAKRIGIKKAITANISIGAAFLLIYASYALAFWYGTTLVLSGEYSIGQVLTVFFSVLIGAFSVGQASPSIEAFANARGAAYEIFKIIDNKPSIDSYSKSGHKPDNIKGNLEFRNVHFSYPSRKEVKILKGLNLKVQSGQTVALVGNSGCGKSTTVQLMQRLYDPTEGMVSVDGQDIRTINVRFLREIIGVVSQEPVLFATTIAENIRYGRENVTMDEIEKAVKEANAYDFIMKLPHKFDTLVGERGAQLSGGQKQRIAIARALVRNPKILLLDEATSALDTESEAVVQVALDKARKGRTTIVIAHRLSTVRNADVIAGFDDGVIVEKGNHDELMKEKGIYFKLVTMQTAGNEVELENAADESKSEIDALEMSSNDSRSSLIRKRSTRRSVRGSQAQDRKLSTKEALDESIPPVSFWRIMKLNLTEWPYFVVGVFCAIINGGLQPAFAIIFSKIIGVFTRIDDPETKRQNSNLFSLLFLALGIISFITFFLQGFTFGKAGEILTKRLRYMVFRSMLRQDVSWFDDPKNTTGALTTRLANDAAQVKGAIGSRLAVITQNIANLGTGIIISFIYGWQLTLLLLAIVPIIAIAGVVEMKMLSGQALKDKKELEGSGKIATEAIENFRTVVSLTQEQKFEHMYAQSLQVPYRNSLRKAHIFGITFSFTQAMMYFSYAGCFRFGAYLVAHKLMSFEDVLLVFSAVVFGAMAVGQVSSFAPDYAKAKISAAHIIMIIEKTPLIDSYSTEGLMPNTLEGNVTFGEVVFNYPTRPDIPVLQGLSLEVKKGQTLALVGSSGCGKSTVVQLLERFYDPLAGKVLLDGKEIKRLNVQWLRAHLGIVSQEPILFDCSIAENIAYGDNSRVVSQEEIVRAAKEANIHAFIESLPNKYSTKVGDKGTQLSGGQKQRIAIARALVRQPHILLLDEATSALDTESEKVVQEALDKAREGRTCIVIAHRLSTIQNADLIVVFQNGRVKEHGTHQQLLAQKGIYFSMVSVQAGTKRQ
T1 sequence (P08183 whole entry): as above

COc1cccc2c1C(=O)c1c(O)c3c(c(O)c1C2=O)C[C@@](O)(C(C)=O)C[C@@H]3O[C@H]1C[C@H](N)[C@H](O)[C@H](C)O1 [DNR, daunorubicin]
DRI at Fa 0.5, drug I (DNR) (MDCKII parent cells; [4]): 2.38±0.08
DRI at Fa 0.75, drug I (DNR) (MDCKII parent cells; [4]): 3.07±0.06
DRI at Fa 0.9, drug I (DNR) (MDCKII parent cells; [4]): 3.96±0.03
DRI at Fa 0.5, drug I (DNR) (MDCKII parent cells; [5]): 2.25±0.03
DRI at Fa 0.75, drug I (DNR) (MDCKII parent cells; [5]): 2.84±0.05
DRI at Fa 0.9, drug I (DNR) (MDCKII parent cells; [5]): 3.60±0.09
DRI at Fa 0.75, drug I (DNR) (MDCKII parent cells; [6]): 2.74±0.06
DRI at Fa 0.9, drug I (DNR) (MDCKII parent cells; [6]): 3.57±0.09
DRI at Fa 0.5, drug I (DNR) (HCT-8 cells; [7]): 3.11±0.13
DRI at Fa 0.75, drug I (DNR) (HCT-8 cells; [7]): 4.14 ±0.08
DRI at Fa 0.9, drug I (DNR) (HCT-8 cells; [7]): 5.45±0.02
DRI at Fa 0.75, drug I (DNR) (HCT-8 cells; [8]): 3.12±0.03
DRI at Fa 0.9, drug I (DNR) (HCT-8 cells; [8]): 4.36±0.13
DRI at Fa 0.5, drug I (DNR) (HCT-8 cells; [9]): 2.63±0.02
DRI at Fa 0.75, drug I (DNR) (HCT-8 cells; [9]): 3.96±0.05
DRI at Fa 0.9, drug I (DNR) (HCT-8 cells; [9]): 5.96±0.17
DRI at Fa 0.75, drug I (DNR) (HepG2 cells; [10]): 2.55±0.03
DRI at Fa 0.9, drug I (DNR) (HepG2 cells; [10]): 4.68±0.09
DRI at Fa 0.9, drug I (DNR) (HepG2 cells; DNR combined with Purvalanol A, ratio 1∶43.0): 4.05±0.08
DRI at Fa 0.75, drug I (DNR) (HepG2 cells; [11]): 2.72±0.02
DRI at Fa 0.9, drug I (DNR) (HepG2 cells; [11]): 5.02±0.03

CN1CC[C@H](c2c(O)cc(O)c3c(=O)cc(-c4ccccc4Cl)oc23)[C@H](O)C1 [flavopiridol]
IC50 (ABCB1 transporter): 16.9 µM
Effect on verapamil-stimulated vanadate-sensitive ATPase activity of ABCB1 (ABCB1 [1]): only slightly reduced it at the highest tested concentration
ABCB1 substrate classification (ABCB1 [2]): non-substrates of ABCB1
inhibition at 30 min (ABCB1 [3]): 31%
